Patent US20090118285A1, “USE OF KCNQ-OPENERS FOR TREATING OR REDUCING THE SYMPTOMS OF SCHIZOPHRENIA” (H. Lundbeck A/S, priority 2006, published 2009)

Assays:
[1] = Inhibition of baseline motility in vehicle-pretreated, vehicle-challenged mice; details: NMRI, mouse, in vivo
[2] = system: sensitised behavioural response to amphetamine in mice; experiment: Amphetamine sensitisation: sensitised behavioural response to amphetamine in mice; assay type: in vivo, mouse; details: amphetamine-pretreated mice, compound s.c. 30 min before D-amphetamine challenge 1.25 mg/kg s.c., 30 min test; for ED50: Mus musculus, read-out: Inhibition of amphetamine sensitised response. ED50 (±S.D.)
Experimental: Inhibition of the behavioral response to an acute amphetamine challenge in sensitised animals is proposed as a model for evaluating the antipsychotic or antimanic potential of compounds.
Subjects. Male NMRI mice (Charles River) weighing approx. 35 g are used. The animals were housed 6 mice pr cage in a 12-hr light/dark cycle under controlled conditions for regular in-door temperature (21±2° C.) and humidity (55±5%) with food and tap water available ad libitum. 12 mice are used pr experimental group.
Administration of compounds.

[3] = system: DA levels in the nucleus accumbens; experiment: Microdialysis: DA levels in the nucleus accumbens of freely moving rats; assay type: in vivo, rat; details: no amphetamine provocation, data not shown
[4] = system: conditioned avoidance response in rats; experiment: Conditioned avoidance response in rats; assay type: in vivo, rat; details: for % inhibition of avoidance. Relative to baseline.: rats; for Escape failures (effect on motor performance): rat, in vivo
From the text: In the conditioned avoidance response (CAR) model, rats are trained to respond to a stimulus within a fixed time by moving from one place to another in order to avoid a footshock. Antipsychotics selectively suppress the avoidance response within a certain dose-range without suppressing escape behavior elicited by the appearance of the footshock. The CAR model is considered to be a predictive and reliable animal model that is sensitive to compounds with an antipsychotic potential.
Subjects. Male Wistar rats (Taconic, Denmark) weighing 150 g at the beginning of the study are used. The rats are housed ii pairs and maintained on a 12 h light/dark cycle (lights on 06:00). The animals are fed once daily (approx. 6 pellets/rat) in order to keep the rats at 80% of their free-feeding weight. Water is available ad libitum. Temperature (21±1° C.) and relative humidity (55±5%) are automatically controlled.
Experimental procedure. Conditioned avoidance testing is conducted using four automated shuttle-boxes (ENV-010M, MED-Associates) each placed in a sound-attenuated chamber. Each box is divided into two compartments by a partition with an opening. The position of the animal and crossings from one compartment to the other are detected by two photocells placed on either side of the dividing wall. Upon presentation of the conditioned stimuli (CS), tone and light, the animals have 10 s to cross to the other compartment of the shuttle-box in order to turn the CS off (end the trial) and avoid the appearance of the unconditioned stimulus (UCS). If the rat remains in the same compartment for more than 10 s, the UCS is presented as 0.5 mA scrambled foot-shocks until escape is performed or 10 s in maximal duration. The following behavioural variables are evaluated: avoidance (response to CS within 10 s); escape (response to CS+UCS); escape failures (failure to respond); intertrial crosses and locomotor activity. The rats are habituated to the shuttle-box 3 min before each test session. During training each test session consists of 30 trials with intertrial intervals varying randomly between 20 s and 30 s. Training is carried until the rats display an avoidance of 80% or more, on 3 consecutive days. A test is preceded by a pre-test the day before giving rise to a baseline value for each animal, thus the animals serve as their own control. Seven to eight rats are used at each dose level. A parallel control group receiving the vehicle of the test compound is also included.
Administration of compound.
Statistical analyses. The effects of compounds on avoidance and escape failure behaviours were statistically evaluated by means of a two-way repeated measures ANOVA followed by post hoc comparisons (Student-Newman-Keuls Method) when appropriate. P-levels <0.05 were considered statistically significant.

[5] = Motility inhibition (sedative properties) without d-amphetamine, rat; details: Wistar, in vivo, sc
[6] = system: DA levels in the nucleus accumbens; experiment: Microdialysis: DA levels in the nucleus accumbens of freely moving rats; assay type: in vivo, rat; details: 5 mg/kg s.c., freely moving rats
From the text: It is well-known that psychostimulants increase locomotor activity via an increase in extracellular DA levels in the nucleus accumbens, which is the terminal area of the mesolimbic DA projections (Guix et al., 1992, Neurosci. Lett., 138(1), 137-140; Moghaddam et al., 1989, Synapse, 4(2), 156-161). It is also known, that the antagonistic effect of antipsychotics on stimulant-induced hyperlocomotion is related to the effect of antipsychotics to inhibit the stimulated DA levels in the nucleus accumbens (Broderick et al., 2004, Prog. Neuropsychopharmacology and Biol. Psych., 28, 157-171). Thus, the nucleus accumbens is an accepted neuroanatomical site for testing reversal of positive symptoms of psychosis. […] The experiments were conducted such that the data may be associated with the behavioural data obtained above.
Subjects. Male Sprague-Dawley rats (Charles River), initially weighing 275-300 g, were used. The animals were housed under a 12-hr light/dark cycle under controlled conditions for regular in-door temperature (21±2° C.) and humidity (55±5%) with food and tap water available ad libitum.
Surgery. Animals were anaesthetized with hypnorm/dormicum (2 ml/kg s.c.) and intracerebral guide cannulas (CMA/12) were stereotaxically implanted, positioning the dialysis probe tip in the nucleus accumbens (co-ordinates: […] anterior to bregma, —1.2 mm lateral to bregma, 8.0 mm ventral to the dura). Anchor screws and acrylic cement was applied for fixation of the guide cannula. The body temperature of the animals was maintained at 37° C. by means of a rectal probe and a heating plate. The rats were allowed to recover from surgery for 2 days, housed singly in cages.
Experimental procedure. On the day of the experiment, a microdialysis probe (CMA/12, 0.5 mm diameter, 2 mm length) was inserted through the guide cannula of the conscious animal. The probes were connected to a microinjection pump via a dual channel swivel which allowed the animals unrestricted movements. Perfusion of the microdialysis probe with filtered Ringer solution (145 mM NaCl, 3 mM KCl, 1 mM MgCl2, 1.2 mM CaCl2) was maintained for the duration of the experiment at a constant flow rate of 1 μL/min. After 180 min of stabilisation, the experiments were initiated. Dialysates were collected every 20 min. After the experiments the rats were sacrificed by decapitation, their brains removed, frozen and sliced for probe placement verification.
Administration of compounds. […] Thirty min after the first administration dex-amphetamine sulphate (0.5 mg/kg s.c.) was administered.
Analysis of dialysate. The concentration of dopamine (DA) in the dialysates was assessed by means of HPLC with electrochemical detection. The dialysate constitutents were separated by reverse phase liquid chromatography (ODS 150×3 mm, […]). Mobile phase consisted of 90 mM NaH2PO4, 50 mM sodium citrate, 367 mg/l sodium 1-octanesulfonic acid, 50 μM EDTA and 8% acetonitrile (pH 4.0) at a flow rate of 0.5 ml/min. Electrochemical detection of DA was accomplished using a coulometric detector; potential set at E1=−75 mV and E2=300 mV (guard cell at 350 mV) (Coulochem II, ESA). The dialysate levels of DA in the three dialyse samples preceding the administration of compound were averaged and used as baseline level of DA (100%)

[7] = system: amphetamine-induced hyperactivity in the rat; experiment: Amphetamine challenge: d-amphetamine induced hyperactivity in rats; assay type: in vivo; details: test substance s.c. 30 min before d-amphetamine sulphate 0.5 mg/kg, motility 2 hours, read-out: Amphetamine antagonism ED50 ± std. dev.
From the text: D-amphetamine administration to rodents stimulates an increase in locomotor activity via mesolimbic dopamine receptors in the nucleus accumbens. While psychostimulant psychosis may not model all forms of schizophrenia, it may have applicability to paranoid schizophrenia and non-schizophrenic psychotic disorders (Krystal et al. pp. 214-224 in Neurobiology of Mental Illness ISBN 0-19-511265-2). It is believed that inhibition of the amphetamine-induced increase in locomotor activity is a reliable method for the evaluation of compounds with an antipsychotic potential (Ögren et al., European J. Pharmacol. 1984, 102, 459-464). In the following experiment, it was tested if the inhibition of spontaneous DA neurons in the mesolimbic circuit that was assessed above, could be translated into behavioral antipsychotic endpoint.
Subjects. Male Wistar rats (Taconic, Denmark) weighing 170-240 g are used. The animals were housed under a 12-hr light/dark cycle under controlled conditions for regular in-door temperature (21±2° C.) and humidity (55±5%) with food and tap water available ad libitum. Eight rats were used at each dose level and in the parallel control group receiving the vehicle to the test compound plus d-amphetamine and the group receiving vehicle injections only.

[8] = system: baseline motility in mice; experiment: Inhibition of baseline motility in vehicle-pretreated, vehicle-challenged mice; details: vehicle-pretreated, vehicle-challenged mice, compound s.c.
[9] = system: immobility in the mouse forced swim test; experiment: Mouse forced swim test; assay type: in vivo; details: 30 min before the test, mice, last 3 min of 6 min swim, vehicle = 100
in vivo = details: Wistar, rat, sc
[10] = 2.5 mg/kg s.c. 30 min before the test
[11] = 5 mg/kg s.c. 30 min before the test

`Cc1cc(N2CCOCC2)nc(C)c1NC(=O)CC(C)(C)C` [N-(2,4-Dimethyl-6-morpholin-4-yl-pyridin-3-yl)-3,3-dimethyl-butyramide] showed an ED50 at 30 min ([1]; subcutaneous) of 3.1 mg/kg and an ED50 [2] of 1.4 mg/kg.
`COc1cc(N2CCOCC2)cc(C)c1NC(=O)CC1CCCC1` [2-Cyclopentyl-N-(2-methoxy-6-methyl-4-morpholin-4-yl-phenyl)-acetamide] showed an ED50 at 30 min ([1]; subcutaneous) of 3 mg/kg and an ED50 [2] of 1.7 mg/kg.
In the case of `CCCCCC(=O)Nc1c(F)cc(N2CCOCC2)cc1F` [Hexanoic acid (2,6-difluoro-4-morpholin-4-yl-phenyl)-amide], the ED50 at 30 min ([1]; subcutaneous) is reported as over 5 mg/kg and the ED50 [2] is reported as 2.4 mg/kg.
For `Cc1cc(N2CCOCC2)cc(C)c1NC(=O)CC(C)(C)C`, the “Effect on basal extracellular DA level in the nucleus accumbens” value [3] was “merely provoked levels of DA were affected, but not basal levels of DA”, the ED50 at 30 min ([1]; subcutaneous) was over 2.5 mg/kg and the “% inhibition of avoidance. Relative to baseline.” value [4, 10] was 1%. The “% inhibition of avoidance. Relative to baseline.” value [4, 11] was 71%, the “Escape failures (effect on motor performance)” value [4] was “None of the tested doses caused any incidences of escape failures” and the ED50 at 2 h [5] was 7.6 mg/kg. For the same compound, the ED50 [2] was 1.6 mg/kg, the “DA level in the nucleus accumbens, amphetamine + compound” value (shortened to “DA level … amphetamine + compound”) ([6]; time 0 min) was 91 ± 4 % of baseline and the “DA level … amphetamine + compound” value ([6]; time −20 min) was 100 ± 3 % of baseline. For the same compound, the ED50 [7] was 2.1 mg/kg.
For `Cc1nc(N2CCOCC2)nc(C)c1NC(=O)Cc1ccc(F)cc1` [N-(4,6-Dimethyl-2-morpholin-4-yl-pyrimidin-5-yl)-2-(4-fluoro-henyl)-acetamide], the “Inhibition of baseline motility. ED50 (±S.D.)” value [8] was 2.2 mg/kg and the “Inhibition of amphetamine sensitised response. ED50 (±S.D.)” value [2] was 0.4 mg/kg.
In the case of `Cc1cc(N2CCOCC2)cc(C)c1NC(=O)CC1CCCC1`, the “Effect on basal extracellular DA level in the nucleus accumbens” value [3] is reported as “merely provoked levels of DA were affected, but not basal levels of DA”, the ED50 at 30 min ([1]; subcutaneous) is reported as 2.2 mg/kg and the “% inhibition of avoidance. Relative to baseline.” value [4, 10] is reported as 5%. For the same compound, the “% inhibition of avoidance. Relative to baseline.” value [4, 11] was 65%, the “Escape failures (effect on motor performance)” value [4] was “None of the tested doses caused any incidences of escape failures” and the ED50 at 2 h [5] was 5.3 mg/kg. The ED50 [2] was 1.2 mg/kg, the “DA level … amphetamine + compound” value ([6]; time 0 min) was 99 ± 4 % of baseline and the “DA level … amphetamine + compound” value ([6]; time −40 min) was 95 ± 6 % of baseline. For the same compound, the ED50 [7] was 2.6 mg/kg.
Compound `CCC(=O)Nc1c(Br)cc(N2CCOCC2)cc1C(F)(F)F` [N-(2-Bromo-4-morpholin-4-yl-6-trifluoromethyl-phenyl)-propionamide] has an ED50 at 30 min ([1]; subcutaneous) of 6 mg/kg and an ED50 [2] of 3.1 mg/kg.
`Cc1cc2c(s1)Nc1ccccc1N=C2N1CCN(C)CC1` [Olanzapine] gave an Immobility in % ([9]; dose 0.31 mg/kg) of 96%, an Immobility in % ([9]; dose 1.3 mg/kg) of 95% and an ED50 [7] of 0.21 mg/kg.
In the case of `CCOC(=O)Nc1ccc(NCc2c(C)cc(C)cc2C)cc1N` [[2-Amino-4-(2,4,6-trimethyl-benzylamino)-phenyl]-carbamic acid ethyl ester], the ED50 at 30 min [1] is reported as 4.3 mg/kg.
In the case of `Cc1nc(N2CCOCC2)nc(C)c1NC(=O)CC1CCCC1` [2-Cyclopentyl-N-(4,6-dimethyl-2-morpholin-4-yl-pyrimidin-5-yl)-acetamide], the ED50 at 30 min ([1]; subcutaneous) is reported as 2.5 mg/kg and the ED50 [2] is reported as 0.9 mg/kg.
Compound `[Li]` [Lithium-chloride] has an ED50 [7] of 12 mg/kg and an ED50 at 2 h (in vivo) of over 40 mg/kg.
